Patent US6956043B2, “Pharmaceutical compositions comprising 33-epi-chloro-33-desoxy-ascomycin solid dispersions” (Novartis AG, priority 1995, dated 2005)

Key:
[1] = Relative bioavailability study in fasted beagle dogs; type: in vivo; conditions: 1 mg/kg, hard gelatin capsules each containing 10 mg compound X
Description: Hard gelatin capsules each containing 10 mg compound X were administered to 8 dogs in a 4-way latin square design; the dogs were fed 6 hours post administration of the capsules, and blood levels of compound X were determined over 48 hours.

Dissolution rate test = type: physicochemical; conditions: stirring in 0.2 wt % sodium dodecylsulfate in water at 37° C., 10 mg compound Y, after 30 minutes
Description: Forms E, F and G are tested for respective dissolution rates. […] 92% available compound Y is released from Form E. This compares with approximately 5% release after 30 minutes from an equivalent amount of crystalline compound Y.

## CO[C@H]1C[C@@H]2CC[C@@H](C)[C@@](O)(O2)C(=O)C(=O)N2CCCC[C@H]2C(=O)O[C@H]([C@H](C)C[C@@H]2CC[C@@H](OCCO)[C@H](OC)C2)CC(=O)[C@H](C)/C=C(\C)[C@@H](O)[C@@H](OC)C(=O)[C@H](C)C[C@H](C)/C=C/C=C/C=C/1C [Compound X, 40-O-(2-hydroxy)ethyl rapamycin]
[1]
  Median peak levels: 140 ng/mL
  median AUC levels of 0-48 hr: ca. 1600 ng.h/ml

## CC[C@@H]1/C=C(\C)C[C@H](C)C[C@H](OC)[C@H]2O[C@@](O)(C(=O)C(=O)N3CCCC[C@H]3C(=O)O[C@H](/C(C)=C/[C@@H]3CC[C@H](Cl)[C@H](OC)C3)[C@H](C)[C@@H](O)CC1=O)[C@H](C)C[C@@H]2OC [crystalline compound Y, 33-epi-chloro-33-desoxy-ascomycin]
Dissolution rate test
  available compound Y released and dissolved: approximately 5%
